Assay results taken from patent publication US6399642B2, “Benzimidazole topoisomerase poisons” (Rutgers, The State University of New Jersey, priority 1998, dated 2002).

Target: T1, human topoisomerase I (Homo sapiens, UniProt P11387)
T1 construct: unnamed fusion partner (recombinant fusion protein); made in house
T1 sequence (P11387 1-765): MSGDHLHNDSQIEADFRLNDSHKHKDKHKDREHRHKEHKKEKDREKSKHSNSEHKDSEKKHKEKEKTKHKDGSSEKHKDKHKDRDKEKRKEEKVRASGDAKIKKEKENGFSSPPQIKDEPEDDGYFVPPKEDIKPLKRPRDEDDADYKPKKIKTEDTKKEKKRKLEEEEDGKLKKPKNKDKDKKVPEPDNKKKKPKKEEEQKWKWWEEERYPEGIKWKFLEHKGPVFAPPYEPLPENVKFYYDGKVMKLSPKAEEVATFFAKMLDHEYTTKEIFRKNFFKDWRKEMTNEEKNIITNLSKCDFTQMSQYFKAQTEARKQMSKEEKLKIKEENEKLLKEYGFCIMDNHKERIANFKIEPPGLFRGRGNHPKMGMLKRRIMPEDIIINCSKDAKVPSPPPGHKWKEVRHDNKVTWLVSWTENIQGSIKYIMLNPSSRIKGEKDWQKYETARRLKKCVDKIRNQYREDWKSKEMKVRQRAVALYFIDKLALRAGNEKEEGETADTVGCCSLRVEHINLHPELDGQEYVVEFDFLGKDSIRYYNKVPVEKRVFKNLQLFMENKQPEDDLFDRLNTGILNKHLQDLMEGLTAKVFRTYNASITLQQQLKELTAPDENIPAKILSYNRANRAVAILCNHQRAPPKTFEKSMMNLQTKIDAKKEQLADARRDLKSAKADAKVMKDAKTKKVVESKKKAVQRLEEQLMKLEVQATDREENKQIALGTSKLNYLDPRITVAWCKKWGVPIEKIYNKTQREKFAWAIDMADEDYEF
Experiment: Test A. Topoisomerase I Cleavage Assay
Type: biochemical
Settings: concentration relative to compound 5 producing the same cleavage on plasmid DNA in the presence of human topoisomerase I
Procedure: Test A. Topoisomerase I Cleavage Assay.
Representative compounds of the invention were evaluated in a cleavage assay using recombinant topoisomerases I. This assay was preformed as described by B. Gatto et al. Cancer Res., 1996, 56, 2795-2800. Human topoisomerase I was isolated as a recombinant fusion protein using a T7 expression system. Plasmid YEpG was purified by the alkali lysis method followed by phenol deproteination and CsCl/ethidium isopycnic centrifiigation as described by Maniatis, T.; Fritsch, E. F.; Sambrook, J. Molecular Cloning, a Laboratory Manual; Cold Spring Harbor Laboratory: Cold Spring Harbor, N.Y. 1982; pp 149-185. The end-labeling of the plasmid was accomplished by digestion with a restriction enzyme followed by end-filling with Klenow polymerase as previously described by Liu, L. F.; Rowe, T. C.; Yang, L.; Tewey, K. M.; Chen, G. L. “Cleavage of DNA by mammalian topoisomerase II,” J. Biol. Chem. 1983, 258, 15365. […] Topoisomerase I cleavage values are reported as REC, Relative Effective Concentration (i.e., concentrations relative to compound 5, whose value is arbitrarily assumed as 1) that is able to produce the same cleavage on the plasmid DNA in the presence of human topoisomerase I.

Compound: FC(F)(F)c1nc2cc(-c3nc4cc(-c5nc6cc(-c7ccccc7)ccc6[nH]5)ccc4[nH]3)ccc2[nH]1 [Compound 5, 5-Phenyl-2-[2′(2″-trifluoromethylbenzimidazol-5″yl)benzimidazol-5′-yl]benzimidazole]
- Topoisomerase I cleavage, REC (Relative Effective Concentration): 1
